Earlier results in EP1656939A1 (Pooger Properties Limited, priority 2004, dated 2006).

Legend:
[1] = system: chemically induced mammary tumors
[2] = system: Ehrlich-carcinoma- and sarcoma-180-bearing mice; conditions: photoperiod alternated between LD 14:10 and DL 10:14 every 3 days

**Q.** With `COc1ccc2[nH]cc(CCNC(C)=O)c2c1` [melatonin, N-acetyl-5-methoxytryptamine] as the compound, how does the “promotion of chemically induced mammary tumors” value ([1]; in vivo) read?
**A.** inhibits

**Q.** And the antitumor activity ([1]; rodents)?
**A.** significant antitumor activity

**Q.** And the “half-life of endogenous melatonin in the serum” value (endogenous melatonin, serum)?
**A.** 30 to 50 min

**Q.** And the “cleared in a single passage through the liver” value (single passage through the liver)?
**A.** Approximately 90%

**Q.** And the “reduction of survival and acceleration of tumor growth” value [2]?
**A.** reversed
